According to patent US7718784B2, “Switchable nucleic acids for diagnostics, screening and molecular electronics” (priority 2003, dated 2010):
[dabcylT] = deoxythymidine carrying a dabcyl quencher; {FAM} = fluorescein (FAM) label; d = 2'-deoxy (DNA); r = 2'-OH (RNA)

Key:
[1] = target: NCp7 (Human immunodeficiency virus type 1 group M subtype B, UniProt P12493); details: for difference in fluorescence intensity (factor): DNA analogs of the two extreme states H and O
Excerpt: This switch has fluorescent labels, * (e.g., FAM, 6-carboxy-fluorescein), at the 5′-end of the chain and Q (a quencher, e.g., dabcyl) near the 3′-end of the DNA segment (light font). […] In the O species, * and Q are within the Förster distance for efficient quenching. However, they are far apart in the extended hairpin form, H, and the switch emits strongly.
By altering the DNA sequence, K1 is adjusted between 0.1-0.01 (K1=[O]/[H]). […] Upon addition of NCp7 (P), the K1 equilibrium shifts to the right, and the fluorescence signal decreases. The switch is set to a null signal in the presence of a slight excess of P, and is triggered to emit when a competitor, C, sequesters the protein in the P.C complex. […] Knowledge of K1, K2, and the input concentrations, Ot, Pt, and Ct will allow estimation of K3.
This allows the equilibrium shift upon changing the sequence, or adding NCp7, to be monitored very easily. Simply put, the fluorescence of pure H and O are known, so their populations in a mixed system will be just a linear function of the measured fluorescence.

[2] = test system: proviral DNA synthesis; details: cited from earlier work
[3] = test system: NC; details: cited from earlier work

For “FAM-d(GCATGCCTCCGCATGC(T-dabcyl)CCAACACGC)-UAGCGGUGGCUAGC (DNA GCATGCCTCCGCATGCTCCAACACGCUAGCGGUGGCUAGC; sugars from the 5' end d26 r14, [dabcylT] at 17, 5' {FAM}, backbone and methylation of C not given here) [M2]”, the “fluorescence of switch without and with NCp7” value [1] was “bright in the absence of NCp7 and dark in its presence” and the “difference in fluorescence intensity (factor)” value [1] was 10.
In the case of “FAMd(GCTAGCCACCGCTAGC(T-dabcyl)CCAACACGC)-UAGCGGUGGCUAGC [M1]”, the “difference in fluorescence intensity (factor)” value [1] was 10.
In the case of “FAMd(GCTATCCACCGATAGC(T-dabcyl)CCAACACGC)-UAGCGGUGGCUAGC (DNA GCTATCCACCGATAGCTCCAACACGCUAGCGGUGGCUAGC; chemistry not fully specified) [M3]”, the “equilibration with NCp7” value ([1]; 10 nM concentration of the switch) was “within a minute”.
In the case of c(F-C-dW-R-C-K), the In vivo effects [2] is listed as “suggest impairment of proviral DNA synthesis” and the “competition with NC for in vitro recognition of its RNA, DNA and protein targets” value [3] is listed as “competes with NC”.
